Measurements from publication PMC9501810, “Bitter Peptides YFYPEL, [sequence], and [sequence], Released during Gastric Digestion of Casein, Stimulate Mechanisms of Gastric Acid Secretion via Bitter Taste Receptors TAS2R16 and TAS2R38” (Journal of Agricultural and Food Chemistry, 2022).

Columns and labels:
pepsin = assay: In vitro gastric digestion of casein with targeted UHPLC-MS/MS-MRM quantitation of peptides; format: in vitro ADME, porcine; settings: 37 °C, n = 4; for degradation of the peptide during further in vitro gastric digestion: up to 6 h
Method: The in vitro digestion was based on the Nature protocol established by Brodkorb et al.([30]) For this, simulated salivary fluid (SSF, containing 15.1 mM KCl, 3.7 mM KH2PO4, 13.6 mM NaHCO3, 0.15 mM MgCl2(H2O)6, 0.06 mM (NH4)2CO3, 1.1 mM HCl, and 1.5 mM CaCl2(H2O)2) and simulated gastric fluid (SGF, containing 6.9 mM KCl, 0.9 mM KH2PO4, 25.0 mM NaHCO3, 47.2 mM NaCl, 0.12 mM MgCl2(H2O)6, 0.5 mM (NH4)2CO3, 15.6 mM HCl, and 0.15 mM CaCl2(H2O)2) were prepared. A total amount of 100 mg casein was suspended in 3 mL of SSF and incubated for 5 min at 37 °C in the tube rotator. After taking a sample (500 μL, t = 0 h), 2 mL of SGF was added and the pH was adjusted to 3 with 100 μL of HCl (1 M). After addition of 125 μL of pepsin solution (80,000 U/mL in 10 mM HCl), 275 μL of H2O was added to fill up to 5 mL. This was followed by further incubation at 37 °C in a tube rotator for 6 h. 500 μL of samples was taken at 0.25, 0.5, 0.75, 1, 2, 3, 4, 5, and 6 h, respectively. The samples were frozen in liquid nitrogen and stored at −80 °C until further analysis. For MS experiments, all samples were diluted 1:1 with 10% MeCN.
All targeted proteomics LC–MS/MS measurements were performed using a Sciex ExionLC AC (Sciex, Darmstadt, Germany) coupled to a 6500+ QTrap LC–MS/MS system (Sciex, Darmstadt, Germany) operating in the positive electrospray ionization mode. Data acquisition and instrumentation control were performed with AnalystTF software (v 1.7.1; Sciex, Darmstadt, Germany). Separation was performed using a 100 × 2.1 mm, 1.7 μm, Kinetex C18 column (Phenomenex, Aschaffenburg, Germany) with a guard column of the same type with 0.1% aqueous formic acid and acetonitrile containing 0.1% formic acid at a flow rate of 0.25 mL/min. The gradient was based on the following scheme: 0 min, 15% B; 7 min, 40% B; 7.5 min, 98% B; 10.5 min, 98% B; 10.8 min, 15% B; and 15 min, 15% B. The column oven temperature was set at 40 °C, and the injection volume was 1 μL per sample. For MS/MS measurements, the same parameters were used for all samples (ion spray voltage […], source temperature 450 °C, nebulizing gas 60 psi, and heating gas 30 psi). Nitrogen was set to 35 psi and served as a curtain gas to effectively dissolve the ions. To optimize the parameters DP, CE, and collision cell exit potential for each peptide and transition (Supporting Information Table-SI 2), standard solutions of the five synthesized peptides were injected directly into the MS ion source. Ionization parameters were optimized in positive ESI mode using AnalystTF software (v 1.7.1; Sciex, Darmstadt, Germany). For the preparation of the calibration curves, five peptides were dissolved individually in D2O (600 μL) and the concentration of the stock solutions was determined by qNMR.[35] For each peptide, seven calibration solutions (0.5, 1, 5, 10, 50, 100, and 200 μM) were diluted in 5% MeCN from these stock solutions. The data were analyzed using MultiQuant software (v 3.0.3; Sciex, Darmstadt, Germany).

TAS2R50 = assay: RT-qPCR gene expression of TAS2R50 in HGT-1 cells; format: cell-based, human; settings: VAPFPEVF 17.5 µM, YFYPEL 0.03 µM, YQEPVLGPVRGPFPIIV 0.4 µM, normalized to PPIA and GAPDH and untreated cells, mean, n = 3–5
Method: For mRNA expression analysis, 800,000 cells were seeded in a T25 cell culture flask (25 cm^2) 1 day before the experiment. After incubation with 17.5 μM […], 0.03 μM YFYPEL, or 0.4 μM […] for 15, 30, 60, and 120 min, RNA was isolated using the peqGOLD RNA Kit (VWR Peqlab, USA) following the manufacturer’s protocol. Determination of RNA concentration (A260/A280 between 2.03 and 2.09) was performed on a NanoDrop One^c (Thermo Fisher Scientific Inc., USA). RNA integrity number (RIN 9.9–10.0, version 2.6, assay class Eukaryote Total RNA Nano) was analyzed using a 2100 Bioanalyzer (Agilent Technologies, USA). Removal of gDNA and synthesis of cDNA were performed using the iScript gDNA Clear cDNA Synthesis Kit (BioRad, Feldkirchen, Germany) following the manufacturer’s protocol. Real-time-qPCR (RT-qPCR) was performed with 50 ng cDNA amplified with SsoAdvanced Universal SYBR Green Supermix (Bio-Rad Laboratories, Inc., USA). The sequences of the forward and reverse primers of the 25 TAS2Rs were taken from Liszt et al.([13]) (Supporting Information Table-SI 3). Verified primers for the TAS1Rs (TAS1R1: qHsaCID0013443; TAS1R2: qHsaCID0016106; TAS1R3: qHsaCED0002321) and for MAPK1 (qHsaCEP0050000) were obtained from Bio-Rad Laboratories. PPIA[37] and GAPDH[38] were used as reference genes. The effects of the peptides on gene expression were analyzed in comparison to untreated control cells.

Substance	degradation of the peptide during further in vitro gastric digestion (pepsin; SGF pH 3 with pepsin)	change in gene expression of TAS2R50 (TAS2R50; incubation 15 min) [fold change]	change in gene expression of TAS2R50 (TAS2R50; incubation 30 min) [fold change]	change in gene expression of TAS2R50 (TAS2R50; incubation 60 min) [fold change]	change in gene expression of TAS2R50 (TAS2R50; incubation 120 min) [fold change]	final concentration after 6 h of in vitro digestion (pepsin; 100 mg casein, SGF pH 3 with pepsin, 6 h, mean) [µM]	highest concentration released during in vitro digestion (pepsin; 100 mg casein, SSF then SGF pH 3 with pepsin, 0–6 h, mean)
YFYPEL [bitter casein peptide αS1-CN144–149]	no noticeable degradation	1.50	0.70	0.92	0.91	–	–
VAPFPEVF [bitter casein peptide αS1-CN25–32]	no noticeable degradation	0.56	1.39	0.83	1.56	–	–
YQEPVLGPVRGPFPIIV [bitter casein peptide βA1/A2-CN193–209]	continuous cleavage over the 6 h	0.67	1.66	1.21	1.07	22.5	up to 300.8 μM
